Assay results reported in US12139488B2, “Pyrido[3,2-d]pyrimidine compounds uses thereof for treating a proliferative disease” (Universite de Montreal, priority 2021, dated 2024).

Tested on: pERK in HCT-116 cells (KRAS G13D)
Assay: Phospho-ERK inhibition (AlphaLISA SureFire Ultra p-ERK 1/2), HCT116
Assay type: cell-based, human
Settings: HCT116 cells; class symbol
Method: All cancer cell lines (A375, A101D, A2058, RKO, HT29 SK-MEL 30, IPC298, HepG2, HCT-116, Lovo, SWV620, SW480, NCI-H358, NCI-H2122, Calu-6, NCIH2087, NCIH1755, NCIH1666 and Mewo) were obtained from ATCC and cultured in RPMI-1640 medium (Gibco) supplemented with 5% heat inactivated fetal bovine serum (FBS, Wisent) at 37° C. under 5% CO2. Cells were maintained in T175 flasks (Greiner). They were passaged by removing the culture medium, washing once in 10 mL of room temperature Phosphate Buffered Saline (PBS; Wisent) and incubating at 37° C. with 2 mL of 0.05% Trypsin (Thermo-Fisher). Trypsin was then inactivated by adding complete growth medium and the cells were then replated in a T175 culture dish at the appropriate dilution. All cell lines were routinely tested for mycoplasma contamination. Tissue type and mutational status of each cell line can be found in Table B.
AlphaLISA® SureFire® Ultra™ p-ERK 1/2 (Thr202/Tyr204) analysis was conducted on cells plated in 100 μL of complete RPMI-1640 growth medium in 96-well flat-bottomed transparent dishes (Costar) at a density indicated in Table C. Cells were maintained overnight at 37° C. under 5% CO2 before treatment with compounds' dilution series for one hour. The cell density in cells/cm^2 corresponds to cell number divided by the area of one well of a 96-well plate ([…]).
In a dilution series 100 μL/well of test substance dilution prepared in complete RPMI-1640 growth media was added to the cells. The dilution series is selected so that ten concentrations cover a range from 10 μM to 0.33 nM. If necessary the initial concentration of 10 μM is increased to 100 μM or lowered to 1 μM (as in the case of A375 and H1666 cells, which are generally more sensitive to the compounds) and further dilution is carried out accordingly. The final concentration of DMSO in the assay is set at 0.5%.
After treatment, media was removed and cells were lysed in 50 μL of 1× AlphaScreen Ultra Lysis Buffer (Perkin Elmer). The AlphaLISA® SureFire® Ultra™ p-ERK 1/2 (Thr202/Tyr2O4) (PerkinElmer) reactions were performed with 5 μL of cell lysate according to the manufacturer's specifications in 384-well proxyplates (Perkin Elmer) followed by overnight incubation of the reactions at room temperature in a humidified chamber. After completion of the reactions, the signals were recorded on an EnVision plate reader (Perkin Elmer) using built in AlphaLISA® settings.
The effect of each compound dilution on the pERK signal was expressed in % inhibition and calculated as follows. An internal 100% inhibition control ([…] trametinib, cat #HY-10999; MedChem Express; CAS #871700-17-3) was included in each plate and used as a measure of pERK background. First, the value obtained for trametinib was subtracted from each data point. The average of DMSO (vehicle) controls (set as 0% inhibition) was established and used to calculate % inhibition: % inhibition=100*(1-((pERK signalcompound)/(pERK signalDMSO)))
The ability of each compound to inhibit pERK signal was expressed as an IC50 value obtained by plotting the inhibition values for each data point of a dilution series and fitting the obtained curves using a log(agonist) versus response-variable slope (four parameters) function using GraphPadPrism (V7.0) or Dotmatics Screening Ultra platform.
When present, paradoxical pERK induction is inferred from the negative % inhibition values observed in the pERK IC50 curves of a compound.

Row | SMILES | IC50
1 | CC(=O)N1CCCc2nn(-c3ccc4ncnc(Nc5c(F)ccc(NS(=O)(=O)c6cccc(F)c6C)c5F)c4n3)cc21 [Example 357] | 500 to 1000 nM
2 | Cc1c(F)cccc1S(=O)(=O)Nc1ccc(F)c(Nc2ncnc3ccc(-n4cnc5c(CC#N)cccc54)nc23)c1F [Example 361] | < 500 nM
3 | Cc1c(F)cccc1S(=O)(=O)Nc1ccc(F)c(Nc2ncnc3ccc(-n4cc5c(n4)CCCN5CCN)nc23)c1F [Example 362] | 1000 to 10000 nM
4 | Cc1cc(N)ccc1S(=O)(=O)Nc1ccc(F)c(Nc2ncnc3ccc(-n4cnc5c(N)cccc54)nc23)c1F [Example 369] | 500 to 1000 nM
5 | Cc1c(F)cccc1S(=O)(=O)Nc1ccc(F)c(Nc2ncnc3ccc(-n4cnc5c(N(CCCO)CCCO)cccc54)nc23)c1F [Example 375] | < 500 nM
6 | COCCN(CCOC)c1cccc2c1ncn2-c1ccc2ncnc(Nc3c(F)ccc(NS(=O)(=O)c4cccc(F)c4C)c3F)c2n1 [Example 376] | 500 to 1000 nM
7 | CC(=O)NCCN1CCCc2nn(-c3ccc4ncnc(Nc5c(F)ccc(NS(=O)(=O)c6cccc(F)c6C)c5F)c4n3)cc21 [Example 383] | 1000 to 10000 nM
8 | COCCCN(CCCOC)c1cccc2c1ncn2-c1ccc2ncnc(Nc3c(F)ccc(NS(=O)(=O)c4cccc(F)c4C)c3F)c2n1 [Example 384] | 1000 to 10000 nM
9 | Cc1c(F)cccc1S(=O)(=O)Nc1ccc(F)c(Nc2ncnc3ccc(-n4cc5c(n4)CCCN5CCCO)nc23)c1F [Example 391] | 1000 to 10000 nM
10 | Cc1c(F)cccc1S(=O)(=O)Nc1ccc(F)c(Nc2ncnc3ccc(-n4cc5c(n4)CCCN5C(=O)CN)nc23)c1F [Example 392] | 1000 to 10000 nM
11 | CC(=O)N1CCc2cnn(-c3ccc4ncnc(Nc5c(F)ccc(NS(=O)(=O)c6cccc(F)c6C)c5F)c4n3)c2C1 [Example 393] | 500 to 1000 nM
12 | Cc1c(F)cccc1S(=O)(=O)Nc1ccc(F)c(Nc2ncnc3ccc(-n4ncc5c4CN(CCN)CC5)nc23)c1F [Example 415] | 500 to 1000 nM
13 | Cc1c(F)cccc1S(=O)(=O)Nc1ccc(F)c(Nc2ncnc3ccc(-n4cnc5c(-c6cnccc6N)cccc54)nc23)c1F [Example 420] | 1000 to 10000 nM
14 | Cc1c(F)cccc1S(=O)(=O)Nc1ccc(F)c(Nc2ncnc3ccc(-n4cnc5c(-c6cccnc6N)cccc54)nc23)c1F [Example 424] | < 500 nM
15 | Cc1c(F)cccc1S(=O)(=O)Nc1ccc(F)c(Nc2ncnc3ccc(-n4ncc5c4CCCN5CCO)nc23)c1F [Example 425] | 500 to 1000 nM
16 | CN(C)CCNS(=O)(=O)c1cn(-c2ccc3ncnc(Nc4c(F)ccc(NS(=O)(=O)c5cccc(Cl)c5Cl)c4F)c3n2)c2ccc(F)cc12 [Example 443] | < 500 nM
17 | CN(C)CCN(C)S(=O)(=O)c1cn(-c2ccc3ncnc(Nc4c(F)ccc(NS(=O)(=O)c5cccc(Cl)c5Cl)c4F)c3n2)c2ccc(F)cc12 [Example 444] | < 500 nM
18 | CC(C)(CO)S(=O)(=O)c1cn(-c2ccc3ncnc(Nc4c(F)ccc(NS(=O)(=O)c5cccc(Cl)c5Cl)c4F)c3n2)c2ccccc12 [Example 447] | < 500 nM
19 | CN(C)CC(C)(C)S(=O)(=O)c1cn(-c2ccc3ncnc(Nc4c(F)ccc(NS(=O)(=O)c5cccc(Cl)c5Cl)c4F)c3n2)c2ccccc12 [Example 456] | < 500 nM
20 | CC(C)(CN1CCOCC1)S(=O)(=O)c1cn(-c2ccc3ncnc(Nc4c(F)ccc(NS(=O)(=O)c5cccc(Cl)c5Cl)c4F)c3n2)c2ccccc12 [Example 457] | < 500 nM
21 | Cc1c(F)cccc1S(=O)(=O)Nc1ccc(F)c(Nc2ncnc3ccc(-n4ncc5c4CCCN5C)nc23)c1F [Example 460] | 1000 to 10000 nM
22 | CNCC(C)(C)S(=O)(=O)c1cn(-c2ccc3ncnc(Nc4c(F)ccc(NS(=O)(=O)c5cccc(Cl)c5Cl)c4F)c3n2)c2ccccc12 [Example 461] | < 500 nM
23 | O=S(=O)(Nc1ccc(F)c(Nc2ncnc3ccc(-n4cc(S(=O)(=O)C5CCNCC5)c5ccccc54)nc23)c1F)c1cccc(Cl)c1Cl [Example 465] | 500 to 1000 nM
24 | CN1CCC(S(=O)(=O)c2cn(-c3ccc4ncnc(Nc5c(F)ccc(NS(=O)(=O)c6cccc(Cl)c6Cl)c5F)c4n3)c3ccccc23)CC1 [Example 467] | < 500 nM

Row | SMILES | IC50
25 | CC(C)N1CCC(S(=O)(=O)c2cn(-c3ccc4ncnc(Nc5c(F)ccc(NS(=O)(=O)c6cccc(Cl)c6Cl)c5F)c4n3)c3ccccc23)CC1 [Example 468] | < 500 nM
26 | O=S(=O)(Nc1ccc(F)c(Nc2ncnc3ccc(-n4cc(S(=O)(=O)C5CCN(CC6CC6)CC5)c5ccccc54)nc23)c1F)c1cccc(Cl)c1Cl [Example 469] | < 500 nM
27 | O=S(=O)(Nc1ccc(F)c(Nc2ncnc3ccc(-n4cc(S(=O)(=O)C5CCN(C6CCC6)CC5)c5ccccc54)nc23)c1F)c1cccc(Cl)c1Cl [Example 470] | < 500 nM
28 | CP(C)(=O)c1cn(-c2ccc3ncnc(Nc4c(F)ccc(NS(=O)(=O)c5cccc(Cl)c5Cl)c4F)c3n2)c2ccccc12 [Example 472] | 1000 to 10000 nM
29 | CN(C)CCCS(=O)(=O)c1cn(-c2ccc3ncnc(Nc4c(F)ccc(NS(=O)(=O)c5cccc(Cl)c5Cl)c4F)c3n2)c2ccccc12 [Example 484] | < 500 nM
30 | O=S(=O)(Nc1ccc(F)c(Nc2ncnc3ccc(-n4cc(CC5CCN(CC(F)F)CS5(=O)=O)c5ccccc54)nc23)c1F)c1cccc(Cl)c1Cl (centres unmarked) [Example 488] | < 500 nM
31 | CC(C)(CC(F)F)S(=O)(=O)c1cn(-c2ccc3ncnc(Nc4c(F)ccc(NS(=O)(=O)c5cccc(Cl)c5Cl)c4F)c3n2)c2ccccc12 [Example 499] | < 500 nM
32 | O=C(c1cn(-c2ccc3ncnc(Nc4c(F)ccc(NS(=O)(=O)c5cccc(Cl)c5Cl)c4F)c3n2)c2ccccc12)C1CCOC1 (centres unmarked) [Example 500] | 1000 to 10000 nM
33 | O=[N+]([O-])c1cn(-c2ccc3ncnc(Nc4c(F)ccc(NS(=O)(=O)c5cccc(Cl)c5Cl)c4F)c3n2)c2ccccc12 [Example 506] | 1000 to 10000 nM
34 | O=C1CCCN1c1cn(-c2ccc3ncnc(Nc4c(F)ccc(NS(=O)(=O)c5cccc(Cl)c5Cl)c4F)c3n2)c2ccccc12 [Example 511] | < 500 nM
35 | O=S(=O)(Nc1ccc(F)c(Nc2ncnc3ccc(-n4cnc5c(N6CC[C@@H](O)C6)nccc54)nc23)c1F)c1cccc(Cl)c1Cl [Example 512] | 1000 to 10000 nM
36 | CCOc1nccc2c1ncn2-c1ccc2ncnc(Nc3c(F)ccc(NS(=O)(=O)c4cccc(Cl)c4Cl)c3F)c2n1 [Example 513] | 500 to 1000 nM
37 | O=S(=O)(Nc1ccc(F)c(Nc2ncnc3ccc(-n4cc(N5CCCCS5(=O)=O)c5ccccc54)nc23)c1F)c1cccc(Cl)c1Cl [Example 514] | < 500 nM
38 | CC(C)(C#N)c1cccc2c1ncn2-c1ccc2ncnc(Nc3c(F)ccc(NS(=O)(=O)c4cccc(Cl)c4Cl)c3F)c2n1 [Example 520] | < 500 nM
39 | CS(=O)(=O)c1cccc2c1ncn2-c1ccc2ncnc(Nc3c(F)ccc(NS(=O)(=O)c4cccc(Cl)c4Cl)c3F)c2n1 [Example 521] | 1000 to 10000 nM
40 | COCCOc1nccc2c1ncn2-c1ccc2ncnc(Nc3c(F)ccc(NS(=O)(=O)c4cccc(Cl)c4Cl)c3F)c2n1 [Example 522] | 500 to 1000 nM
41 | CCOc1cccc2c1ncn2-c1ccc2ncnc(Nc3c(F)ccc(NS(=O)(=O)c4cccc(Cl)c4Cl)c3F)c2n1 [Example 525] | 500 to 1000 nM
42 | Cc1c(F)cccc1S(=O)(=O)Nc1ccc(F)c(Nc2ncnc3ccc(-n4ncc5c4CN(CC(N)=O)CC5)nc23)c1F [Example 531] | 1000 to 10000 nM
43 | O=C1CCCCN1c1cn(-c2ccc3ncnc(Nc4c(F)ccc(NS(=O)(=O)c5cccc(Cl)c5Cl)c4F)c3n2)c2ccccc12 [Example 532] | 1000 to 10000 nM
44 | O=S(=O)(Nc1ccc(F)c(Nc2ncnc3ccc(-n4cc(-c5ccccc5)nn4)nc23)c1F)c1cccc(Cl)c1Cl [Example 534] | < 500 nM
45 | O=S(=O)(Nc1ccc(F)c(Nc2ncnc3ccc(-c4cscn4)nc23)c1F)c1cccc(Cl)c1Cl [Example 536] | 500 to 1000 nM
46 | N#CC1(c2cccc3c2ncn3-c2ccc3ncnc(Nc4c(F)ccc(NS(=O)(=O)c5cccc(Cl)c5Cl)c4F)c3n2)CC1 [Example 552] | < 500 nM
47 | Cc1cn(-c2ccc3ncnc(Nc4c(F)ccc(NS(=O)(=O)c5cccc(Cl)c5Cl)c4F)c3n2)cn1 [Example 553] | < 500 nM
